Measurements as given in patent US7449312B2, “Kit for conducting a polymerase chain reaction” (The Secretary of State for Defense in Her Britannic …, priority 2001, dated 2008).
Read-outs that look alike come from different tables or passages of the source.

B1: Sac PPase: thermostable pyrophosphatase of Sulfolobus acidocaldarius, obtainable from GeneSys Limited (protein, UniProt P50308 1-173, looked up)
Inorganic pyrophosphatase: MKLSPGKNAPDVVNVLVEIPQGSNIKYEYDDEEGVIKVDRVLYTSMNYPFNYGFIPGTLEEDGDPLDVLVITNYQLYPGSVIEVRPIGILYMKDEEGEDAKIVAVPKDKTDPSFSNIKDINDLPQATKNKIVHFFEHYKELEPGKYVKISGWGSATEAKNRIQLAIKRVSGGQ

Legend:
[1] = system: thermostable DNA polymerases (Taq, Tbr, Tth, TspNH, Pfu, 9°N exo-, VENT, Accurase); assay: PCR with different thermostable DNA polymerases, with PPi and Sac PPase; assay type: biochemical; conditions: FIGS. 7a, 7b, 8b
From the text: A variety of thermostable DNA polymerases were employed in the method of the invention and some comparative assays. These included several non-proofreading Thermus sp. DNA polymerases, proof-reading hyperthermophilic archael DNA polymerases and mixes of non-proofreading and proofreading DNA polymerases.
They were all tested using the 500 bp lambda PCR as described in Example 1 (FIGS. 7a and 7b), and several using the Angiotensin assay as described in Example 4 (FIGS. 8a and 8b).

Taq DNA polymerase = Taq DNA polymerase (Thermus aquaticus, UniProt P19821); conditions: for suppression of PCR: results not shown
Experimental: Using Taq DNA polymerase, a standard 500 bp lambda template PCR using the following reagents, was conducted in the presence of differing quantities of the inorganic pyrorphosphate, tetrasodium pyrophosphate decahydrate (PPi).
1× Reaction Buffer: 10 mM Tris. pH 8.0, 50 mM KCl.
(§1) PCR conditions for the assay were as follows:
The PPi was added such that the final concentration in the reaction mixture was 0, 1, 2, 3, 4 and 5 mM. In this Figure, the lanes correspond to the following concentrations of PPi
In order to eliminate this possibility, the procedure of Example 1 with 3 mM PPi was repeated in the presence of various concentrations of magnesium ions.
The example was repeated using concentrations of PPi of less than 1 mM.

[2] = 500 bp lambda PCR in the presence of PPi and PPase; assay type: biochemical; conditions: 0.2 u Sac PPase; 95° C. for 5 mins
From the text: The 500 bp lambda PCR of Example 1 was repeated, but this time, 0.2 u of Sulfolobus acidocaldarius PPase (Sac PPase) was included in reactions containing pyrophosphate (PPi).
The results are shown in FIG. 3 where the lanes represent the following reactions: […]

[3] = system: 321 bp fragment of the human angiotensin gene; assay: Angiotensin PCR assay requiring a HotStart reaction; assay type: biochemical; conditions: up to two hours at ambient temperature; 0.2 u Sac PPase, 3 mM PPi
From the text: The method of the invention was then applied to an assay system that requires a “HotStart” reaction in order to generate a PCR product of the correct size.
The assay is based around the amplification of a 321 bp fragment of the human angiotensin gene. It has been recognised that the assay will only generate the correct amplification product in the presence of betaine (EP-A-0962526—see in particular Example 8).
Without betaine a HotStart DNA polymerase generates few non-specific amplification products or no products at all whereas a non-HotStart DNA polymerase PCR generates a large number of non-specific amplification products.
The PCR conditions used in the Angiotensin assay can be summarised as follows.
as §1
The reaction was conducted using a PE9700 Instrument in the presence of 3 mM PPi and 0.2 u PPase as described in Example 3.
The effect of leaving a PCR mixture containing 0.2 u Sac PPase and 3 mM PPi at room temperature 20° C. for various lengths of time prior to conducting the Angiotensin assay, was investigated. Although Sac PPase is a thermostable enzyme, it was possible that there would be a small level of enzyme activity at ambient temperatures. This might lead to insufficient PPi in the reaction to inhibit/stop the DNA polymerase leading to primer extension and lack of “HotStart” functionality. […]

Chain of Taq DNA polymerase (P19821 whole entry): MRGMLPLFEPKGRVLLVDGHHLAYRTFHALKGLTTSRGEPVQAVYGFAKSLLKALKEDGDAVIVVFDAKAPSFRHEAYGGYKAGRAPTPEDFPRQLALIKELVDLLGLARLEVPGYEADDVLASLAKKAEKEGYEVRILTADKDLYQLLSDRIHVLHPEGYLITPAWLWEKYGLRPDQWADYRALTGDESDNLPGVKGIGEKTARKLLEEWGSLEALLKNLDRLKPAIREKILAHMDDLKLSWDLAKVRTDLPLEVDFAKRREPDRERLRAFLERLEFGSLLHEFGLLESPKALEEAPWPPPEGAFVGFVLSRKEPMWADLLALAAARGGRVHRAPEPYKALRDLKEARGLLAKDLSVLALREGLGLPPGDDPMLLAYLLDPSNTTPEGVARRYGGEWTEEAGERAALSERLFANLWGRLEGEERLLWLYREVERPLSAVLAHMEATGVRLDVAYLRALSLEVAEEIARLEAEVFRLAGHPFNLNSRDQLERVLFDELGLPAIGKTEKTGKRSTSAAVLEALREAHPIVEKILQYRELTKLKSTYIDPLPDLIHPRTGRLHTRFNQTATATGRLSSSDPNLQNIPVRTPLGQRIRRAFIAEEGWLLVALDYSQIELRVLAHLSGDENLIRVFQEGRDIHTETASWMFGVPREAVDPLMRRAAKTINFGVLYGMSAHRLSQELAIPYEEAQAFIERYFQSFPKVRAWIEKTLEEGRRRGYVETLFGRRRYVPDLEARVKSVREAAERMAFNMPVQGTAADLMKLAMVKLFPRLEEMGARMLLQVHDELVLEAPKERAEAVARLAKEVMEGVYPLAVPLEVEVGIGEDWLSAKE

| Molecule | inhibition of DNA polymerases by PPi ([1]; 3 mM PPi, no PPase) | suppression of PCR (Taq DNA polymerase; 0.4 mM PPi) | suppression of PCR (Taq DNA polymerase; 0.6 mM PPi) | PCR with increasing magnesium ion concentration (Taq DNA polymerase; 3 mM PPi, Mg++ up to 10 mM final concentration, FIG. 2) | PCR product formation in presence of PPi (Taq DNA polymerase; PPi 1, 2, 3, 4 and 5 mM final, 1.5 mM MgCl2, FIG. 1) | destruction of pyrophosphate so that the PCR reaction could proceed [2] | ambient temperature digestion of PPi by PPase [3] | reversal of PPi inhibition by PPase ([1]; 3 mM PPi and 0.2u Sac PPase) |
| --- | --- | --- | --- | --- | --- | --- | --- | --- |
| O.O.O.O.O.O.O.O.O.O.O=P([O-])([O-])OP(=O)([O-])[O-].[Na+].[Na+].[Na+].[Na+] [PPi, tetrasodium pyrophosphate decahydrate] | inhibited | did not completely suppress the PCR | no PCR occurred | does not allow PCR to occur | no PCR product was produced | – | – | – |
| B1 | – | – | – | – | – | sufficient to destroy the pyrophosphate | insufficient ambient temperature digestion of the PPi | inhibition could be overcome |
